Experimental data taken from DBAASP.
Converted amounts (≈) assume the structure as drawn.

Columns and labels:
Test in all cases: ≥ marks a high value that may be exact or a test limit, other limits are often not marked, values filed in µg/mL are converted to µM
[1] = system: Acinetobacter baumannii Ab1408
[2] = system: Acinetobacter baumannii Ab5753
[3] = system: Acinetobacter baumannii Ab5755
[4] = system: Acinetobacter baumannii ICB 14067
[5] = system: Acinetobacter baumannii ICB 14072
[6] = system: Acinetobacter baumannii ICB 14073
[7] = system: Acinetobacter baumannii ICB 9250
[8] = system: Acinetobacter baumannii M17
[9] = system: Enterobacter cloacae 34654
[10] = system: Enterobacter cloacae Ha089
[11] = system: Enterobacter cloacae Ha89
[12] = system: Escherichia coli ATCC 25922
[13] = system: Escherichia coli BL21AI
[14] = system: Escherichia coli DSM 1103
[15] = system: Escherichia coli J2210
[16] = system: Escherichia coli JJ2487
[17] = system: Escherichia coli Neumann
[18] = system: Escherichia coli UB1005
[19] = system: Escherichia coli
[20] = system: Klebsiella pneumoniae 57 USA
[21] = system: Klebsiella pneumoniae ATCC 10031
[22] = system: Klebsiella pneumoniae ATCC 12657
[23] = system: Klebsiella pneumoniae ATCC 27799
[24] = system: Klebsiella pneumoniae CMCC 46117
[25] = system: Klebsiella pneumoniae
[26] = system: Micrococcus luteus ATCC 10240
[27] = system: Proteus vulgaris ICB 9081
[28] = system: Pseudomonas aeruginosa DSM 3227
[29] = system: Pseudomonas aeruginosa Pa1409
[30] = system: Pseudomonas aeruginosa Walter
[31] = system: Pseudomonas aeruginosa
[32] = system: Salmonella typhimurium SL1344
[33] = system: Shigella dysenteriae CMCC 51252
[34] = system: Shigella flexneri ATCC 12022
[35] = system: Staphylococcus aureus Sa1390
[36] = system: Stenotrophomonas sp. ICB 308054
[37] = system: Stenotrophomonas sp. ICB 7569

CC[C@H](C)[C@H](NC(=O)[C@H](CCCN=C(N)N)NC(=O)[C@H](CCCN=C(N)N)NC(=O)[C@@H]1CCCN1C(=O)[C@@H]1CCCN1C(=O)[C@H](CCCN=C(N)N)NC(=O)[C@@H]1CCCN1C(=O)[C@H](CCCN=C(N)N)NC(=O)[C@@H]1CCCN1C(=O)[C@H](CC(C)C)NC(=O)[C@H](Cc1ccc(O)cc1)NC(=O)[C@@H]1CCCN1C(=O)[C@@H]1CCCN1C(=O)[C@H](CCCCN)NC(=O)[C@H](CC(=O)O)NC(=O)[C@@H](N)C(C)C)C(=O)N[C@@H](Cc1ccc(O)cc1)C(=O)N[C@@H](CC(N)=O)C(=O)N[C@@H](CCCN=C(N)N)C(N)=O [VDKPPYLPRPRPPRRIYNR] gave an MIC [1] of no less than 53.5 µM, an MIC [2] of no less than 53.5 µM and an MIC [3] of no less than 53.5 µM. The MIC [4] was 0.418 µM (≈ 1 µg/mL), the MIC [5] was 0.418 µM (≈ 1 µg/mL) and the MIC [6] was 0.837 µM (≈ 2 µg/mL). For the same compound, the MIC [7] was 0.209 µM (≈ 0.5 µg/mL), the MIC [8] was 0.418 µM (≈ 1 µg/mL) and the MIC [9] was 0.105 µM (≈ 0.25 µg/mL). For the same compound, the MIC [10] was 0.0523 µM (≈ 0.125 µg/mL), the MIC [11] was 0.105 µM (≈ 0.25 µg/mL) and the MIC [12] was 8 µM (≈ 19.1 µg/mL). The MIC [13] was 1.67 µM (≈ 4 µg/mL), the MIC [14] was 3.35 µM (≈ 8 µg/mL) and the MIC [15] was 0.33 µM (≈ 0.79 µg/mL). For the same compound, the MIC [16] was 0.251 µM (≈ 0.6 µg/mL), the MIC [17] was 0.837 µM (≈ 2 µg/mL) and the MIC [18] was 0.544 µM (≈ 1.3 µg/mL). For the same compound, the MIC [19] was 0.296 µM (≈ 0.707 µg/mL), the MIC [20] was 0.105 µM (≈ 0.25 µg/mL) and the MIC [21] was 4 µM (≈ 9.56 µg/mL). For the same compound, the MIC [22] was 0.209 µM (≈ 0.5 µg/mL), the MIC [23] was 0.418 µM (≈ 1 µg/mL) and the MIC [24] was 2 µM (≈ 4.78 µg/mL). It also gave an MIC [25] of 3.35 µM (≈ 8 µg/mL), an MIC [26] of 3.35 µM (≈ 8 µg/mL) and an MIC [27] of 1.67 µM (≈ 4 µg/mL). For the same compound, the MIC [28] was 1.67 µM (≈ 4 µg/mL), the MIC [29] was no less than 53.5 µM and the MIC [30] was 3.35 µM (≈ 8 µg/mL). It also gave an MIC [31] of 1.18 µM (≈ 2.83 µg/mL), an MIC [32] of 0.251 µM (≈ 0.6 µg/mL) and an MIC [33] of 8 µM (≈ 19.1 µg/mL). For the same compound, the MIC [34] was 16 µM (≈ 38.2 µg/mL), the MIC [35] was no less than 53.5 µM and the MIC [36] was 13.4 µM (≈ 32 µg/mL). The MIC [37] was 3.35 µM (≈ 8 µg/mL).
